Results on four compounds are retold here after article PMC12096666, “Synthesis, in vitro and in silico studies of a novel chrysin-ferrocene Schiff base with potent anticancer activity via G1 arrest, caspase-dependent apoptosis and inhibition of topoisomerase II” (Journal of Enzyme Inhibition and Medicinal Chemistry, 2025).

Assay [1] concerns the target T1, TrkA (Homo sapiens, UniProt P04629).
T1 construct: purchased BPS Bioscience
As to the kind of experiment: TrkA inhibition assay. It is filed as biochemical. As to conditions: mean ± SD of three experiments. On the procedure: (§1) CDK2 kinase assay was performed using the CDK2 kinase assay kit (BPS Bioscience, USA) as previously described. The EGFR kinase assay was performed in 96-well plates coated with PGT (poly l-glutamic acid l-tyrosine, Sigma Aldrich, USA) using the EGFR kinase assay kit (BPS Bioscience, USA) and was conducted as previously described. The VEGFR-2 kinase assay was carried out in 96-well streptavidin coated plate using recombinant human VEGFR-2/KDR ELISA kit as previously described. The tropomyosin receptor kinases (TRK) inhibition assay was performed using TrkA assay kit (BPS Bioscience, USA) as per the manufacturer’s instructions. Topoisomerase II assay was performed using the human topoisomerase II relaxation assay kit (Inspiralis, UK) which involved relaxing supercoiled pBR322 DNA substrate by the enzyme. The relaxation assay was conducted as per the manufacturer’s instructions and as previously reported.

The target of assay [2] is T2, EGFR (Homo sapiens, UniProt P00533).
T2 construct: purchased BPS Bioscience
T2 sequence (P00533 25-1210): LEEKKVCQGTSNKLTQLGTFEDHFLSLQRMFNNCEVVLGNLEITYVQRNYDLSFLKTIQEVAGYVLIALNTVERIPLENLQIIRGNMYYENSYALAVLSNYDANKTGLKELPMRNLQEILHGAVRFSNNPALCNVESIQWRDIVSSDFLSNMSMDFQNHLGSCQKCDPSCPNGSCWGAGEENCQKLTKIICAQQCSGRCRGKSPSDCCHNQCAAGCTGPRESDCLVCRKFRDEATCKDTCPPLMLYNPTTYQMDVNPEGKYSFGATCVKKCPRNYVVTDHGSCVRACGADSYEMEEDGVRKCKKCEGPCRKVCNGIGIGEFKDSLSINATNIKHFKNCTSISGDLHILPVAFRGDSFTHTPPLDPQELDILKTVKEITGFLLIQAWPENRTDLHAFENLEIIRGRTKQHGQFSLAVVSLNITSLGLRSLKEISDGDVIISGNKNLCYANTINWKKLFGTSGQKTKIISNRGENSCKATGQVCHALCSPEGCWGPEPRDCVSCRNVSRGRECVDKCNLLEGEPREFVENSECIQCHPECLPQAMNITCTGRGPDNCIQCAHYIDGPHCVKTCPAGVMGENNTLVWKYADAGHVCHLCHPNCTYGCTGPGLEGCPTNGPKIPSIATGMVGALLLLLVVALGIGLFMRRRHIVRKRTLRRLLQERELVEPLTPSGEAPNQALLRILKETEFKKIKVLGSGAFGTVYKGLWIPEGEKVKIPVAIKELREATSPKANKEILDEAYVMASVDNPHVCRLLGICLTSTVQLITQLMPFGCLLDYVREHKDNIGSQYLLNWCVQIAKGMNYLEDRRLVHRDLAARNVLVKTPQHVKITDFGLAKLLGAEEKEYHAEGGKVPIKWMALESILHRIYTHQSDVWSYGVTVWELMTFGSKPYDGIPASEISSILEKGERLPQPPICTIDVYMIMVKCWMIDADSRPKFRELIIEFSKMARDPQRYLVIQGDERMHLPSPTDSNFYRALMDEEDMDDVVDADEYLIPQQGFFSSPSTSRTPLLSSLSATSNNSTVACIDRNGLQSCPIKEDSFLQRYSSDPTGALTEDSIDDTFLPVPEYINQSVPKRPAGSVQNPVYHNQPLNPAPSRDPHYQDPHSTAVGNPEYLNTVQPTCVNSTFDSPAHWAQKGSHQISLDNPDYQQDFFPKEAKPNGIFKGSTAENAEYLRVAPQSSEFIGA
Briefly: EGFR kinase assay. It counts as biochemical. As to conditions: mean ± SD of three experiments. The method, then:
as §1

The target in assay [3] is human topoisomerase II. As to the kind of experiment: Human topoisomerase II relaxation assay (pBR322). As to conditions: relaxation of supercoiled pBR322 DNA; mean ± SD of three experiments. It counts as biochemical. On the procedure: as §1
The potential inhibition of topoisomerase II by CFSB was evaluated using human topoisomerase II assay. This assay involves measuring the ability of topoisomerase II enzyme to relax supercoiled DNA (pBR322)[68].

Assay [4] deals with T3, tubulin (Sus scrofa, UniProt P02550+P02554).
T3 construct: polymerisation of tubulin, isolated from porcine brain tissue; purchased Cytoskeleton, Inc; host or cells: porcine brain tissue
T3 sequence (P02554 whole entry): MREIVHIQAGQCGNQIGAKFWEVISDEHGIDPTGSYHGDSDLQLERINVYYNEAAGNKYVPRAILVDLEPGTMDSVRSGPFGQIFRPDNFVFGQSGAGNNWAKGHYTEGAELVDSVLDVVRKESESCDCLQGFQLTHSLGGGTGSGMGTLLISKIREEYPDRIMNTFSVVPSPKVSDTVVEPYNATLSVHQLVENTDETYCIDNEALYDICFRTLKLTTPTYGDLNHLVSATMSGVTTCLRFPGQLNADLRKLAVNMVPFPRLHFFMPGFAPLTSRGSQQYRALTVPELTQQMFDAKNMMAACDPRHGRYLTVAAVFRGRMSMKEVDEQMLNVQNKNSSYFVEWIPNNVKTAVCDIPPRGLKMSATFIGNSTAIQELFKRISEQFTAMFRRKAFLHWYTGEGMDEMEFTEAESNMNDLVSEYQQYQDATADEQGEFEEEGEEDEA
T3 sequence (P02550 whole entry): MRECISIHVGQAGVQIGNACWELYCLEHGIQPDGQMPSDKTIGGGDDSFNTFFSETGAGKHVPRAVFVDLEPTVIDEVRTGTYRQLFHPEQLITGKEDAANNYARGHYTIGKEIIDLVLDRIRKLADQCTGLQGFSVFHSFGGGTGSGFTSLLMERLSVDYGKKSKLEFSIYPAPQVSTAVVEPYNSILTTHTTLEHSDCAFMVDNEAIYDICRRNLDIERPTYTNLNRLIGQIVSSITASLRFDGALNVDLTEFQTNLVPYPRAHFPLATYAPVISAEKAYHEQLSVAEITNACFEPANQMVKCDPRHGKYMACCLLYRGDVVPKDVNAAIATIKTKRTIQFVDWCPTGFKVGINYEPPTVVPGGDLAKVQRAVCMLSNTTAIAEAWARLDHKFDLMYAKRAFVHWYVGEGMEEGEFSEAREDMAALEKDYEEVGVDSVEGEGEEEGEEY
As to the kind of experiment: Tubulin polymerisation assay. It counts as biochemical. The settings on record: fluorescence, tubulin from porcine brain; mean ± SD of three experiments. On the procedure:
The assay was performed using the tubulin polymerisation assay kit (Cytoskeleton, Inc, USA) as per the manufacturer’s instructions and as previously reported. […] Polymerisation dose-response curves were obtained by measuring changes in fluorescence intensity at each compound concentration. Fluorescence was measured at an excitation of 360 nm and emission of 450 nm using a Tecan-spark reader.
A tubulin polymerisation assay was used in order to assess the potential of CFSB as a tubulin polymerisation inhibitor. The assay involved observing the polymerisation of tubulin, isolated from porcine brain tissue, in the presence of CFSB. Changes in polymerisation were monitored via changes in fluorescence intensity.

Assay [5] deals with T4, VEGFR (Homo sapiens, UniProt P35968).
T4 construct: purchased
T4 sequence (P35968 20-1356): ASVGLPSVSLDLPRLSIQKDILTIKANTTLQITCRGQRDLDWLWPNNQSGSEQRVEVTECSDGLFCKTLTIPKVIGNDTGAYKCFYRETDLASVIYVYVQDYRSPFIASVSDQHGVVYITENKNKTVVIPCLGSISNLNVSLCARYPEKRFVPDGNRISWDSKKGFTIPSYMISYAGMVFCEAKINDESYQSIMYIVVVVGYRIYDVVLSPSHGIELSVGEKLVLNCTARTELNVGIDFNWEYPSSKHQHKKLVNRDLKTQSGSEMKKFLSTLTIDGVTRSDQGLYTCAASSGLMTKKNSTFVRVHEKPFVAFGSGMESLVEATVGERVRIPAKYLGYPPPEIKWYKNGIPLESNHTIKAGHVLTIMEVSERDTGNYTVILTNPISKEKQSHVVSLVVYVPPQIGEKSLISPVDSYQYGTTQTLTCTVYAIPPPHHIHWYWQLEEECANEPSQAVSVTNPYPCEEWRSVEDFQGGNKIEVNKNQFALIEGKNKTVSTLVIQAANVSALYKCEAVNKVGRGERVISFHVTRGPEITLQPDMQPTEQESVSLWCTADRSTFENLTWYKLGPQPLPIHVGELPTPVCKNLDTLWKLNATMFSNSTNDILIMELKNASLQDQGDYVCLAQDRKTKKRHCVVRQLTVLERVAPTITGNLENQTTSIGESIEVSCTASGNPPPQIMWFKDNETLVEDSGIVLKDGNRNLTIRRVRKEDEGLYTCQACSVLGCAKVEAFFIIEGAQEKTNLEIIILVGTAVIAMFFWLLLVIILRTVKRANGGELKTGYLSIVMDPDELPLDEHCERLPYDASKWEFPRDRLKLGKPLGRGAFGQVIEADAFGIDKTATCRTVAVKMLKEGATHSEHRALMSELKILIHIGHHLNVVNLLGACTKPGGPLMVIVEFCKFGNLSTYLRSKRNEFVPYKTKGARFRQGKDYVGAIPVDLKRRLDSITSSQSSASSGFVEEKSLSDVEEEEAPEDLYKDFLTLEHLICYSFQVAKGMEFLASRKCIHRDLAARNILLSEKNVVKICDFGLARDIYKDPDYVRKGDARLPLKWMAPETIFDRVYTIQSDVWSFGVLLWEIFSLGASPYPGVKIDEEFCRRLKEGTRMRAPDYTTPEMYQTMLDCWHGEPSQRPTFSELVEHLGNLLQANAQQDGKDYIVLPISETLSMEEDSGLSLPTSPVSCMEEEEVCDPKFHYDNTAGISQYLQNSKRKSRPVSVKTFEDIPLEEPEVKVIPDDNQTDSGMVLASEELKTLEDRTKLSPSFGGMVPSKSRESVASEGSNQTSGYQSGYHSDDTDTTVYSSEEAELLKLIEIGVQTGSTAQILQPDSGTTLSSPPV
Briefly: VEGFR-2 kinase assay. It is filed as biochemical. The settings on record: mean ± SD of three experiments. On the procedure: as §1

The target of assay [6] is T5, CDK2 (Homo sapiens, UniProt P24941).
T5 construct: purchased BPS Bioscience
As to the kind of experiment: CDK2 kinase assay. It counts as biochemical. The settings on record: mean ± SD of three experiments. On the procedure:
as §1

Assay [7] relates to HCT116 cells. Briefly: MTT cell viability assay, HCT116. It is filed as cell-based. The settings on record: Homo sapiens, HCT-116, 72 h, mean ± SD of three experiments. The method, then: (§2) Liver cancer (HepG2), colon cancer (HCT116), lung cancer (A549), breast cancer (MCF7) and normal lung (MRC5) cells were obtained from ATCC (Rockville, USA). Cells were cultured in RPMI-1640 enriched with 10% foetal calf serum and 50 µg/ml gentamycin. They were incubated at 37 °C in a humidified environment containing 5% CO2 and passaged 2–3 times/week.
(§3) The MTT assay was conducted as previously reported. Cell lines were seeded at 5x10^4 cells/well and incubated for 24 h. CFSB was added in twelve concentrations, alongside vehicle controls and vinblastine sulphate as a positive control. After 72 h of incubation, cell viability was assessed using the MTT assay. Media was replaced, followed by the addition of MTT solution. DMSO was later added and optical density was measured at 590 nm using a microplate reader (TECAN, USA). IC50 values were calculated using Graphpad Prism (San Diego, USA). The experiment was repeated three times.
A general note: Tetrazolium assays rely on reduction of a dye to a coloured formazan, in cell work by metabolically active cells.

Assay [8] deals with MCF7 cells. Briefly: MTT cell viability assay, MCF7. The settings on record: Homo sapiens, 72 h, mean ± SD of three experiments. It counts as cell-based. On the procedure: as §2, §3
For assay [9], the system named is HepG2 cells. Briefly: MTT cell viability assay, HepG2. It is filed as cell-based. As to conditions: Homo sapiens, 72 h, mean ± SD of three experiments. On the procedure:
as §2, §3

The test system of assay [10] is A549 cells. Briefly: MTT cell viability assay, A549. It is filed as cell-based. As to conditions: Homo sapiens, 72 h, mean ± SD of three experiments.
Experimental: The MTT assay was conducted as previously reported[20]. Cell lines were seeded at 5x10^4 cells/well and incubated for 24 h. […] After 72 h of incubation, cell viability was assessed using the MTT assay. Media was replaced, followed by the addition of MTT solution. DMSO was later added and optical density was measured at 590 nm using a microplate reader (TECAN, USA). IC50 values were calculated using Graphpad Prism (San Diego, USA). The experiment was repeated three times.
Assay [11] relates to MDA-MB-231. As to conditions: triple negative breast cancer cell line; values as low as; cited from earlier work.

The structures appear in SMILES notation. Where “and” joins values, the source holds several entries; their conditions need not be identical. Equal entries are not always repeated. A value given as a limit tells only on which side of the number the result lay.

T1 sequence (P04629 33-796): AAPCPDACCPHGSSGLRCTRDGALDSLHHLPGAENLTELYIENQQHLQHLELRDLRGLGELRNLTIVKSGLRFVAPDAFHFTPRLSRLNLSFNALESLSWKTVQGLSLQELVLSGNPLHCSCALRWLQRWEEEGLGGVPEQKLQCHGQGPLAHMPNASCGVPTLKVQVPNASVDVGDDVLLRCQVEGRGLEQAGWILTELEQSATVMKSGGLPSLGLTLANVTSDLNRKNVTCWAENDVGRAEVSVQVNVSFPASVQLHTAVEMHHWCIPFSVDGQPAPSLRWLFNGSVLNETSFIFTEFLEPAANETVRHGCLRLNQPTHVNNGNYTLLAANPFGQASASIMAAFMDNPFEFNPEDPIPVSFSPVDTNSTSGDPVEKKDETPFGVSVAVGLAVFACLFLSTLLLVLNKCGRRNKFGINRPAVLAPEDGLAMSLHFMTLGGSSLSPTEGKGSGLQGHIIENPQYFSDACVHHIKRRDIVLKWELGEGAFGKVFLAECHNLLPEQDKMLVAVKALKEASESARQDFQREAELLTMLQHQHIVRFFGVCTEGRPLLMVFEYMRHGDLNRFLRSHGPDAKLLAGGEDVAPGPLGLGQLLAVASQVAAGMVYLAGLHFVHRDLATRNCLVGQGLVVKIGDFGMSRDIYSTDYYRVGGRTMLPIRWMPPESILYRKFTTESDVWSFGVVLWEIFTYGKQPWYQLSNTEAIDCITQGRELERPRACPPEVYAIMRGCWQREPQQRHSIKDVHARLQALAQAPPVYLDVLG

With `Oc1cc(O)c2c(=N[C]34[CH]5[CH]6[CH]7[CH]3[Fe]6754389%10[CH]4[CH]3[CH]8[CH]9[CH]4%10)cc(-c3ccccc3)oc2c1` (stereo not drawn) [CFSB, cyclopenta-2,4-dien-1-yl(5-((5,7-dihydroxy-2-phenyl-4H-chromen-4-ylidene)amino)cyclopenta-2,4-dien-1-yl)iron], the IC50 was more than 100 µM in assay [1]; more than 100 µM in [2]; 20 µM and 20.1 µM in [3]; 76 µM and 76.4 µM in [4]; more than 100 µM in assay [5]; more than 100 µM in [6].
In [7], `COc1cccc2c1C(=O)c1c(O)c3c(c(O)c1C2=O)C[C@@](O)(C(=O)CO)C[C@@H]3O[C@H]1C[C@H](N)[C@H](O)[C@H](C)O1` [Doxorubicin] gave a half-inhibitory concentration (IC50) of 3.16 ± 0.38 µM.
With `CC[C@]1(O)C[C@@H]2CN(CCc3c([nH]c4ccccc34)[C@@](C(=O)OC)(c3cc4c(cc3OC)N(C)[C@H]3[C@@](O)(C(=O)OC)[C@H](OC(C)=O)[C@]5(CC)C=CCN6CC[C@]43[C@@H]65)C2)C1` [Vinblastine sulphate], the IC50 came to 2.27 ± 0.25 µM in assay [8], 0.89 ± 0.1 µM in assay [9], 4.15 ± 0.31 µM in assay [10] and 1.75 ± 0.19 µM in assay [7].
In the case of `O=C(COc1cc(O)c2c(=O)cc(-c3ccccc3)oc2c1)N/N=C/c1ccc(O)cc1O` [Chrysin-De-allyl-Pac-1], the IC50 in assay [11] is not below 5.98 µM.

By IC50 is commonly meant the midpoint of a concentration-inhibition curve.
